The values below come from PubChem BioAssay (NCI).

Some test systems named below: COLO 205 colon; A498 renal; OVCAR-5 ovarian; NCI-H23 lung; UO-31 renal; 786-0 renal; SK-OV-3 ovarian; RPMI-8226 leukemia; SF-539 CNS; NCI-H226 lung.
What all share (test): growth of human tumour cells (NCI), 48 h

SMILES strings stand for the structures.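 These data come from cells grown in 96-well plates and exposed to compound for 48 hours at five concentrations. GI50 is the concentration that inhibits growth by half. TGI is the concentration that stops growth completely.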

`O=C1C2C3C=C4c5ccccc5N(c5ccccc5)C4(C2C(=O)N1c1ccccc1)C1C(=O)N(c2ccccc2)C(=O)C31` (centres undefined): the TGI is above 100 µM in the assay on COLO 205 colon; 5.13 µM in the assay on A498 renal; above 100 µM with OVCAR-5 ovarian; above 100 µM with NCI-H23 lung; above 100 µM in the assay with UO-31 renal; above 100 µM with 786-0 renal.
As for `O=C(O)CCNS(=O)(=O)c1ccc(NC(=O)c2ccccc2)cc1`, the TGI with SK-OV-3 ovarian, in the assay with RPMI-8226 leukemia, with COLO 205 colon, in the assay on A498 renal, in the assay on OVCAR-5 ovarian and in the assay with SF-539 CNS was above 100 µM each time. For the same compound, the TGI in the assay with NCI-H23 lung, in the assay on UO-31 renal and in the assay with 786-0 renal was above 100 µM throughout.
Consider `Cc1cc2c(C)nn(Cc3ccccc3)c2c(C(=O)O)c1C`, for which the TGI with SK-OV-3 ovarian, in the assay with NCI-H226 lung, in the assay with RPMI-8226 leukemia, in the assay on COLO 205 colon, in the assay on OVCAR-5 ovarian and in the assay with SF-539 CNS was above 100 µM in each case. Moreover, the TGI in the assay with NCI-H23 lung, in the assay on UO-31 renal and in the assay with 786-0 renal was above 100 µM throughout.
As for `CN(C(=O)/C=C/c1ccccc1)C1C2CN3CCC(O2)C13` (centres undefined), the TGI in the assay on SK-OV-3 ovarian, in the assay on NCI-H226 lung, in the assay on COLO 205 colon, in the assay on A498 renal, in the assay on OVCAR-5 ovarian and in the assay on SF-539 CNS was above 100 µM throughout. Moreover, the TGI with NCI-H23 lung, in the assay with UO-31 renal and with 786-0 renal was above 100 µM throughout.
As for `CC1=C([Se]CC(OC(=O)CC[Se]c2ccccc2)C(=O)NC(C)(C)C)C(=O)c2ccccc2C1=O` (centres undefined), the GI50 was 1.45 µM with SK-OV-3 ovarian; 2 µM in the assay on NCI-H226 lung; 1.6 µM in the assay on COLO 205 colon; 2.82 µM in the assay on A498 renal; 1.75 µM in the assay with OVCAR-5 ovarian; 1.75 µM in the assay on SF-539 CNS. Moreover, the figures for the GI50 with NCI-H23 lung, in the assay on UO-31 renal and in the assay with 786-0 renal were 1.56 µM, 1.17 µM and 1.83 µM, respectively. The TGI came to 2.81 µM with SK-OV-3 ovarian; 4.56 µM in the assay on NCI-H226 lung; 3.13 µM in the assay on COLO 205 colon; 6.42 µM in the assay with A498 renal; 3.18 µM with OVCAR-5 ovarian; 3.15 µM with SF-539 CNS. In addition, the TGI in the assay on NCI-H23 lung is 3.11 µM; in the assay with UO-31 renal, 2.43 µM; in the assay with 786-0 renal, 3.23 µM.
For the compound `O=C(NCCCOC(=O)CCCCCCCCC(=O)OCCCNC(=O)NC(=O)c1c[nH]c(=O)[nH]c1=O)NC(=O)c1c[nH]c(=O)[nH]c1=O`, the TGI with SK-OV-3 ovarian, in the assay on RPMI-8226 leukemia, in the assay with COLO 205 colon, with A498 renal, in the assay with OVCAR-5 ovarian and in the assay on SF-539 CNS was above 100 µM in each case. In addition, the TGI in the assay on NCI-H23 lung and with 786-0 renal was above 100 µM throughout.
With `COc1cccc(-c2nc3cc(NC(=O)c4ccc(Cl)c(C#N)c4)ccc3o2)c1`, the GI50 was 2.57 µM in the assay on SK-OV-3 ovarian; 6.49 µM in the assay on NCI-H226 lung; 5.77 µM in the assay with COLO 205 colon; 3.05 µM in the assay with OVCAR-5 ovarian; 1.68 µM with SF-539 CNS; 1.69 µM in the assay with NCI-H23 lung. The values for the GI50 with UO-31 renal and in the assay on 786-0 renal were 3.95 µM and 1.74 µM, respectively. The TGI in the assay on SK-OV-3 ovarian was 5.56 µM; in the assay with NCI-H226 lung, above 100 µM; in the assay with COLO 205 colon it was above 100 µM; in the assay with OVCAR-5 ovarian it was above 100 µM; in the assay with SF-539 CNS, 3.37 µM; in the assay with NCI-H23 lung, 4.15 µM. The TGI is above 100 µM with UO-31 renal and 3.33 µM with 786-0 renal.
With `C[N+](C)(C)CCC(=O)CC[N+](C)(C)C`, the TGI with SK-OV-3 ovarian is above 100 µM; with RPMI-8226 leukemia, 21.6 µM; in the assay with COLO 205 colon, 31.8 µM; with A498 renal it was above 100 µM; with SF-539 CNS it was 41 µM; in the assay with NCI-H23 lung, 55.9 µM. Also, the results for the TGI in the assay with UO-31 renal and in the assay with 786-0 renal were above 100 µM and 46.5 µM, respectively.
Regarding `CC1=C(C(=O)Nc2ccccc2C)C(c2ccc(Cl)cc2)C(C(=O)Nc2ccccc2C)=C(C)N1`, the TGI in the assay with SK-OV-3 ovarian, in the assay with NCI-H226 lung, in the assay with RPMI-8226 leukemia, with COLO 205 colon, in the assay on OVCAR-5 ovarian and with SF-539 CNS was above 100 µM in each case. Further, the TGI in the assay with NCI-H23 lung, in the assay with UO-31 renal and with 786-0 renal was above 100 µM in each case.
As for `CCC1(O)C(=O)OCc2c1cc1n(c2=O)Cc2cc3ccccc3nc2-1` (centres undefined), the TGI with SK-OV-3 ovarian was 7.11 µM; with RPMI-8226 leukemia, 1.89 µM; in the assay with COLO 205 colon, 3.55 µM; in the assay with A498 renal it was 4.15 µM; in the assay on OVCAR-5 ovarian, 1.25 µM; in the assay with SF-539 CNS, above 100 µM. Besides, the results for the TGI in the assay on NCI-H23 lung, in the assay on UO-31 renal and in the assay on 786-0 renal were 0.0806 µM, 0.156 µM and 0.203 µM, respectively. In the assay on SF-539 CNS, the GI50 was 0.0107 µM.
As for `COC(=O)/C(=N\NC(C)(C)C)C(C(=O)OC)C(=O)C(=O)Nc1cc(Cl)ccc1Cl` (centres undefined), the TGI in the assay on SK-OV-3 ovarian, with NCI-H226 lung, in the assay on COLO 205 colon, in the assay with A498 renal, in the assay with OVCAR-5 ovarian and in the assay on SF-539 CNS was above 100 µM throughout. Besides, the TGI in the assay with NCI-H23 lung, in the assay with UO-31 renal and in the assay on 786-0 renal was above 100 µM throughout.
For the compound `Nc1ncnc2c1ncn2C1OC(CSCC(F)(F)F)C(O)C1O` (centres undefined), the TGI in the assay with SK-OV-3 ovarian, with NCI-H226 lung, in the assay on RPMI-8226 leukemia, in the assay with COLO 205 colon, in the assay on OVCAR-5 ovarian and in the assay on SF-539 CNS was above 100 µM in each case. For the same compound, the TGI with NCI-H23 lung, in the assay on UO-31 renal and in the assay with 786-0 renal was above 100 µM throughout.
On to `CC[O-].CC[O-].O=C([CH-]C(=O)c1ccccc1)CCCCCCCCC(=O)[CH-]C(=O)c1ccccc1.[Ti+4]`, for which the GI50 was above 100 µM in the assay on SK-OV-3 ovarian; above 100 µM in the assay on RPMI-8226 leukemia; above 100 µM in the assay on COLO 205 colon; above 100 µM in the assay with A498 renal; above 100 µM in the assay on OVCAR-5 ovarian; 92 µM in the assay with NCI-H23 lung. In addition, the GI50 with 786-0 renal is above 100 µM. Also, the TGI in the assay on SK-OV-3 ovarian, with RPMI-8226 leukemia, in the assay with COLO 205 colon, with A498 renal, in the assay with OVCAR-5 ovarian and in the assay with NCI-H23 lung was above 100 µM each time. Further, the TGI with 786-0 renal was above 100 µM.
